Source: patent publication US8563730B2, “Pyrazole and fused pyrazole glucokinase activators” (Takeda San Diego, Inc., priority 2008, dated 2013)
Like-named read-outs stand apart in the source and are kept apart here.

Target: T1, GK (glucokinase, residues 12-465) (Homo sapiens, UniProt P35557)
T1 construct: I.D. No. 1 corresponds to residues 12-465 of glucokinase; made in house; host or cells: DH10b-T1r E. coli
T1 sequence (P35557 with tags, fused parts or gaps isoform P35557-2): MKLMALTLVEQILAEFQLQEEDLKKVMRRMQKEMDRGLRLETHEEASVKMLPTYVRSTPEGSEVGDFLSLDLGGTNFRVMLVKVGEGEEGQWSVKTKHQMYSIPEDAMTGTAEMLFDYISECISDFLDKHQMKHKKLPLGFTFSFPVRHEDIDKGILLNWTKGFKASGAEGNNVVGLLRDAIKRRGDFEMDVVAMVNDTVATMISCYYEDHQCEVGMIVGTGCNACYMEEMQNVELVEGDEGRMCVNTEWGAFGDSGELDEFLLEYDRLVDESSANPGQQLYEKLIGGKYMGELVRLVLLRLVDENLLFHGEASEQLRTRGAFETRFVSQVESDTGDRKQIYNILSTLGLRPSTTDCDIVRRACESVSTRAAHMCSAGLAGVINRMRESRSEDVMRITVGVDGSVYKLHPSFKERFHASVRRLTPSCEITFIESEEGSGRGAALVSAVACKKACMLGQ
Assay: enzymatic glucokinase activity assay (ATP consumption, KinaseGlo luminescence)
Type: biochemical
Details: 5 μM ATP, 5 mM Glucose, reported as bins; for EC50: Kact = concentration that displays 50% of the maximal increase in GK activity, 60 min, room temperature, read-out: pKact
How it was run: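 E. coli-expressed recombinant GK purified by two anion-exchange steps. Reaction in 25 mM Hepes pH 7.2, 10 mM MgCl2, 1 mM DTT, 5 μM ATP, 5 mM glucose, 2% DMSO, 60 min at room temperature. ATP consumption quantified by KinaseGlo luminescence; pKact and % ACTmax derived by non-linear curve fitting.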

[1] = calculated maximal gain in GK enzyme activity at a saturating concentration of the compound, read-out: % ACTmax
[2] = read-out: % ACTmax, calculated maximal gain in GK enzyme activity at a saturating concentration of the compound

| EC50 | Emax [1] | SMILES | Emax [2] |
| --- | --- | --- | --- |
| ≤ 316 nM | 101 to 105% | O=C1CC[C@H](C[C@H](C(=O)Nc2ncc(Cl)s2)n2ncc3c(S(=O)(=O)C4CC4)cccc32)C1 [Compound 114, (R)-N-(5-chlorothiazol-2-yl)-2-(4-(cyclopropylsulfonyl)-1H-indazol-1-yl)-3-((R)-3-oxocyclopentyl)propanamide] |  |
| ≤ 316 nM | 106 to 110% | O=C(Nc1ncc(F)s1)C(CC1CCOCC1)n1ncc2c(S(=O)(=O)C3CC3)cc(F)cc21 (stereo not drawn) [Compound 115, 2-(4-(cyclopropylsulfonyl)-6-fluoro-1H-indazol-1-yl)-H-(5-fluorothiazol-2-yl)-3-(tetrahydro-2H-pyran-4-yl)propanamide] |  |
| 3980 to 12600 nM | ≤ 90% | Cc1ccc(NC(=O)C(CC2CCOCC2)n2ncc3c(S(=O)(=O)C4CC4)cccc32)nn1 (stereo not drawn) [Compound 116, 2-(4-(cyclopropylsulfonyl)-1H-indazol-1-yl)-N-(6-methylpyridazin-3-yl)-3-(tetrahydro-2H-pyran-4-yl)propanamide] |  |
| ≤ 316 nM | 106 to 110% | NC(=O)c1ccc(NC(=O)C(CC2CCOCC2)n2ncc3c(S(=O)(=O)C4CC4)cc(F)cc32)nc1 (stereo not drawn) [Compound 117, 6-(2-(4-(cycloproypylsulfonyl)-6-fluoro-1H-indazol-1-yl)-3-(tetrahydro-2H-pyran-4-yl)propanamido)nicotinamide] |  |
| ≤ 316 nM | 90 to 100% | N#Cc1cc(S(=O)(=O)C2CC2)c2cnn(C(CC3CCOCC3)C(=O)Nc3ncc(F)s3)c2c1 (stereo not drawn) [Compound 120, 2-(6-cyano-4-(cyclopropylsulfonyl)-1H-indazol-1-yl)-N-(5-fluorothiazol-2-yl)-3-(tetrahydro-2H-pyran-4-yl)propanamide] |  |
| ≤ 316 nM | 90 to 100% | O=C(Nc1ncc(F)s1)C(CC1CCOCC1)n1ncc2c(S(=O)(=O)C3CC3)cc(Cl)cc21 (stereo not drawn) [Compound 121, 2-(6-chloro-4-(cyclopropylsulfonyl)-1H-indazol-1-yl)-N-(5-fluorothiazol-2-yl)-3-(tetrahydro-2H-pyran-4-yl)propanamide] |  |
| 3980 to 12600 nM | ≥ 111% | Cc1cc(S(=O)(=O)C2CC2)c2cnn(C(CC3CCOCC3)C(=O)Nc3ncc(F)s3)c2c1 (stereo not drawn) [Compound 122, 2-(4-(cyclopropylsulfonyl)-6-methyl-1H-indazol-1-yl)-N-(5-fluorothiazol-2-yl)-3-(tetrahydro-2H-pyran-4-yl)propanamide] |  |
| ≤ 316 nM | ≥ 111% | O=C(Nc1ncc(F)s1)[C@H](CC1CCOCC1)n1ncc2c(S(=O)(=O)C3CC3)cc(F)cc21 [Compound 123, (S)-2-(4-(cyclopropylsulfonyl)-6-fluoro-1H-indazol-1-yl)-N-(5-fluorothiazol-2-yl)-3-(tetrahydro-2H-pyran-4-yl)propanamide] |  |
| 3980 to 12600 nM | ≥ 111% | O=C(Nc1ccncn1)C(CC1CCOCC1)n1ncc2c(S(=O)(=O)C3CC3)cccc21 (stereo not drawn) [Compound 124, 2-(4-(cyclopropylsulfonyl)-1H-indazol-1-yl)-N-(pyrimidin-4-yl)-3-(tetrahydro-2H-pyran-4-yl)propanamide] |  |
| 1580 to 3160 nM | ≥ 111% | N#Cc1cnc(NC(=O)C(CC2CCOCC2)n2ncc3c(S(=O)(=O)C4CC4)cccc32)s1 (stereo not drawn) [Compound 125, N-(5-cyanothiazol-2-yl)-2-(4-(cyclopropylsulfonyl)-1H-indazol-1-yl)-3-(tetrahydro-2H-pyran-4-yl)propanamide] |  |
| ≥ 15800 nM | ≤ 90% | N#Cc1cnc(NC(=O)C(CC2CCOCC2)n2ncc3c(S(=O)(=O)C4CC4)cccc32)nc1 (stereo not drawn) [Compound 126, N-(5-cyanopyrimidin-2-yl)-2-(4-(cyclopropylsulfonyl)-1H-indazol-1-yl)-3-(tetrahydro-2H-pyran-4-yl)propanamide] |  |
| ≤ 316 nM | 101 to 105% | O=C(Nc1ncc(F)s1)C(CC1CCOCC1)n1ncc2c(S(=O)(=O)C3CC3)ccnc21 (stereo not drawn) [Compound 127, 2-(4-(cyclopropylsulfonyl)-1H-pyrazolo[3,4-b]pyridin-1-yl)-N-(5-fluorothiazol-2-yl)-3-(tetrahydro-2H-pyran-4-yl)propanamide] |  |
| ≤ 316 nM | 90 to 100% | COc1cc(S(=O)(=O)C2CC2)c2cnn([C@@H](CC3CCOCC3)C(=O)Nc3ncc(F)s3)c2c1 [Compound 128, (S)-2-(4-(cyclopropylsulfonyl)-6-methoxy-1H-indazol-1-yl)-N-(5-fluorothiazol-2-yl)-3-(tetrahydro-2H-pyran-4-yl)propanamide] |  |
| 3980 to 12600 nM | ≤ 90% | COc1cc(S(=O)(=O)C2CC2)c2cnn([C@H](CC3CCOCC3)C(=O)Nc3ncc(F)s3)c2c1 [Compound 129, (R)-2-(4-(cyclopropylsulfonyl)-6-methoxy-1H-indazol-1-yl)-N-(5-fluorothiazol-2-yl)-3-(tetrahydro-2H-pyran-4-yl)propanamide] |  |
| ≤ 316 nM | 101 to 105% | O=C(Nc1ncc(F)s1)C(CC1CCOCC1)n1ncc2c(S(=O)(=O)C3CC3)cc(O)cc21 (stereo not drawn) [Compound 130, 2-(4-(cyclopropylsulfonyl)-6-hydroxy-1H-indazol-1-yl)-N-(5-fluorothiazol-2-yl)-3-(tetrahydro-2H-pyran-4-yl)propanamide] |  |
| 1580 to 3160 nM | 90 to 100% | N#Cc1cc(S(=O)(=O)C2CC2)c2cnn([C@H](CC3CCOCC3)C(=O)Nc3ncc(F)s3)c2c1 [Compound 132, (R)-2-(6-cyano-4-(cyclopropylsulfonyl)-1H-indazol-1-yl)-N-(5-fluorothiazol-2-yl)-3-(tetrahydro-2H-pyran-4-yl)propanamide] |  |
| ≤ 316 nM | 101 to 105% | N#Cc1cc(S(=O)(=O)C2CC2)c2cnn([C@@H](CC3CCOCC3)C(=O)Nc3ncc(F)s3)c2c1 [Compound 133, (S)-2-(6-cyano-4-(cyclopropylsulfonyl)-1H-indazol-1-yl)-N-(5-fluorothiazol-2-yl)-3-(tetrahydro-2H-pyran-4-yl)propanamide] |  |
| 1580 to 3160 nM | ≥ 111% | Cc1cc(NC(=O)C(CC2CCOCC2)n2ncc3c(S(=O)(=O)C4CC4)cccc32)nn1C (stereo not drawn) [Compound 134, 2-(4-(cyclopropylsulfonyl)-1H-indazol-1-yl)-N-(1,5-dimethyl-1H-pyrazol-3-yl)-3-(tetrahydro-2H-pyran-4-yl)propanamide] |  |
| 398 to 1260 nM | 106 to 110% | N#Cc1ccc(NC(=O)C(CC2CCOCC2)n2ncc3c(S(=O)(=O)C4CC4)cccc32)nc1 (stereo not drawn) [Compound 135, N-(5-cyanopyridin-2-yl)-2-(4-(cyclopropylsulfonyl)-1H-indazol-1-yl)-3-(tetrahydro-2H-pyran-4-yl)propanamide] |  |
| 398 to 1260 nM | ≥ 111% | N#Cc1cnc(NC(=O)[C@H](CC2CCOCC2)n2ncc3c(S(=O)(=O)C4CC4)cccc32)s1 [Compound 136, (S)-N-(5-cyanothiazol-2-yl)-2-(4-(cyclopropylsulfonyl)-1H-indazol-1-yl)-3-(tetrahydro-2H-pyran-4-yl)propanamide] |  |
| 3980 to 12600 nM | ≤ 90% | N#Cc1cnc(NC(=O)[C@@H](CC2CCOCC2)n2ncc3c(S(=O)(=O)C4CC4)cccc32)s1 [Compound 137, (R)-N-(5-cyanothiazol-2-yl)-2-(4-(cyclopropylsulfonyl)-1H-indazol-1-yl)-3-(tetrahydro-2H-pyran-4-yl)propanamide] |  |
| 398 to 1260 nM | 90 to 100% | O=C(Nc1ncc(F)s1)[C@H](CC1CCOCC1)n1ncc2c(S(=O)(=O)C3CC3)ccnc21 [Compound 138, (S)-2-(4-(cyclopropylsulfonyl)-1H-pyrazol[3,4-b]pyridin-1-yl)-N-(5-fluorothiazol-2-yl)-3-(tetrahydro-2H-pyran-4-yl)propanamide] |  |
| ≥ 15800 nM | 106 to 110% | O=C(Nc1ncc(F)s1)[C@@H](CC1CCOCC1)n1ncc2c(S(=O)(=O)C3CC3)ccnc21 [Compound 139, (R)-2-(4-(cyclopropylsulfonyl)-1H-pyrazol[3,4-b]pyridin-1-yl)-N-(5-fluorothiazol-2-yl)-3-(tetrahydro-2H-pyran-4-yl)propanamide] |  |
| ≥ 15800 nM | ≤ 90% | O=C(Nc1ncc(F)s1)C(CC1CCOCC1)n1cc2c(S(=O)(=O)C3CC3)cncc2n1 (stereo not drawn) [Compound 140, 2-(4-(cyclopropylsulfonyl)-2H-pyrazol[3,4-c]pyridin-2-yl)-N-(5-fluorothiazol-2-yl)-3-(tetrahydro-2H-pyran-4-yl)propanamide] |  |
| ≤ 316 nM | 90 to 100% | O=C(Nc1ncc(F)s1)[C@H](CC1CCOCC1)n1ncc2c(S(=O)(=O)C3CC3)cc(Cl)cc21 [Compound 141, (S)-2-(6-chloro-4-(cyclopropylsulfonyl)-1H-indazol-1-yl)-N-(5-fluorothiazol-2-yl)-3-(tetrahydro-2H-pyran-4-yl)propanamide] |  |

| SMILES | EC50 | Emax [1] | Emax [2] |
| --- | --- | --- | --- |
| Cn1ccc(NC(=O)[C@@H](CC2CCOCC2)n2ncc3c(S(=O)(=O)C4CC4)cccc32)n1 [Compound 118] | ≥ 15800 nM |  | ≤ 90% |
| Cn1ccc(NC(=O)[C@H](CC2CCOCC2)n2ncc3c(S(=O)(=O)C4CC4)cccc32)n1 [Compound 119] | 398 to 1260 nM |  | 90 to 100% |
